pKi: −log10 of the molar value.
Legend:
Escherichia coli [1] = test: Compound was evaluated for inhibition of L-arginine decarboxylase (ADC) from Escherichia coli in UV time dependent assay.
Escherichia coli [2] = test: Rate of inactivation against L-arginine decarboxylase (ADC) from Escherichia coli was determined in UV time dependent assay.
[3] = Compound was evaluated for binding affinity towards L-arginine decarboxylase (ADC) from Escherichia coli in UV time dependent assay.
[4] = Half life was reported; type: ADME
bacterium cadaveris [5] = test: Rate of inactivation against L-lysine decarboxylase (LDC) from Bacterium cadaveris was determined in UV time dependent assay.
[6] = Compound was evaluated for binding affinity against L-lysine decarboxylase (LDC) from Bacterium cadaveris in UV time dependent assay.
bacterium cadaveris [7] = test: Compound was evaluated for inhibition L-lysine decarboxylase (LDC) from Bacterium cadaveris in UV time dependent assay.

SMILES | Km (Escherichia coli [1]) | K inact (Escherichia coli [2]) | pKi [3] | half-life [4] | K inact (bacterium cadaveris [5]) | pKi [6] | Km (bacterium cadaveris [7])
C=C[C@](N)(CCCNC(=N)N)C(=O)O (racemic) | 180 µM | 0.036 min⁻¹ | 2.74 | 19 min |  |  | 
C=C[C@](N)(CCCCN)C(=O)O (racemic) |  |  |  | 35 min | 0.02 min⁻¹ | 3.30 | 640 µM
